In brackets after ≈: the same amount, converted by molar mass. Like-named read-outs stand apart in the source and are kept apart here.
Key:
[1] = system: Mycobacterium tuberculosis H37RV; test: In vitro antitubercular activity by MABA (Alamar Blue); assay type: cell-based; settings: for MIC: read-out: H37RV MIC
MTT cytotoxicity assay = assay type: cell-based; settings: LO2 normal liver cells, human normal liver cells (L02), mean of three experiments
[2] = Mycobacterium tuberculosis H37RV, MABA, Middlebrook 7H9 broth, 37°C five days
[3] = Mycobacterium tuberculosis, H37RV, 120 h, Mycobacterium tuberculosis H37RV, MABA, Middlebrook 7H9 broth, 37°C five days

Row | SMILES | MIC [1, 3] | further results
1 | N#CC1=C(N)OC(c2ccc(OC(F)(F)F)cc2)=CC1c1ccc[nH]1 (centres unmarked) [Compound 60] | 16 to 18 µM (≈ 5.56 to 6.25 µg/mL) | MIC [1, 2]: 16 µM (≈ 5.56 µg/mL)
2 | N#CC1=C(N)OC(c2ccc(C(F)(F)F)cc2)=CC1c1ccc[nH]1 (centres unmarked) [Compound 50] | 16 to 18 µM (≈ 5.3 to 5.96 µg/mL) | MIC [1, 2]: 16 µM (≈ 5.3 µg/mL)
3 | O=C(/C=C/c1cccc([N+](=O)[O-])c1)c1ccc(OC(F)(F)F)cc1 [Compound 15] | 148 µM (≈ 49.9 µg/mL) | –
4 | N#CC1=C(N)OC(c2ccc(OC(F)(F)F)cc2)=CC1c1ccc([N+](=O)[O-])cc1 (centres unmarked) [Compound 59] | 144 µM (≈ 58.1 µg/mL) | –
5 | O=C(/C=C/c1ccccc1[N+](=O)[O-])c1ccc(C(F)(F)F)cc1 [Compound 4] | 156 µM (≈ 50.1 µg/mL) | –
6 | O=C(/C=C/c1cccs1)c1ccc(OC(F)(F)F)cc1 [Compound 16] | 148 µM (≈ 44.1 µg/mL) | –
7 | [H]/N=C(/N)N[C@H]1[C@H](O)[C@@H](O)[C@H](O[C@@H]2O[C@@H](C)[C@](O)(C=O)[C@H]2O[C@@H]2O[C@@H](CO)[C@H](O)[C@@H](O)[C@@H]2NC)[C@@H](N/C(N)=N\[H])[C@@H]1O [Streptomycin, reference compound] | ~11 µM (≈ 6.4 µg/mL) | MIC [1, 2]: 11 µM (≈ 6.4 µg/mL)
8 | N#CC1=C(N)OC(c2ccc(C(F)(F)F)cc2)=CC1c1ccc([N+](=O)[O-])cc1 (centres unmarked) [Compound 49] | 151 µM (≈ 58.5 µg/mL) | –
9 | N#CC1=C(N)OC(c2ccc(OC(F)(F)F)cc2)=CC1c1c[nH]c2ccccc12 (centres unmarked) [Compound 53] | 29 µM (≈ 11.5 µg/mL) | –
10 | O=C(/C=C/c1ccco1)c1ccc(OC(F)(F)F)cc1 [Compound 17] | 168 µM (≈ 47.4 µg/mL) | –
11 | O=C(/C=C/c1cccc(Cl)c1)c1ccc(C(F)(F)F)cc1 [Compound 2] | 161 µM (≈ 50 µg/mL) | –
12 | O=C(/C=C/c1c[nH]c2ccccc12)c1ccc(C(F)(F)F)cc1 [Compound 3] | 145 µM (≈ 45.7 µg/mL) | –
13 | N#CC1=C(N)OC(c2ccc(C(F)(F)F)cc2)=CC1c1ccccc1Cl (centres unmarked) [Compound 41] | 16 to 18 µM (≈ 6.03 to 6.78 µg/mL) | MIC [1, 2]: 17 µM (≈ 6.41 µg/mL)
14 | N#Cc1c(-c2ccc([N+](=O)[O-])cc2)cc(-c2ccc(C(F)(F)F)cc2)nc1N [Compound 29] | 152 µM (≈ 58.4 µg/mL) | –
15 | N#Cc1c(-c2cccc(Cl)c2)cc(-c2ccc(C(F)(F)F)cc2)nc1N [Compound 22] | 134 µM (≈ 50.1 µg/mL) | –
16 | N#CC1=C(N)OC(c2ccc(OC(F)(F)F)cc2)=CC1c1ccc(Cl)cc1 (centres unmarked) [Compound 58] | 36 µM (≈ 14.1 µg/mL) | –
17 | N#Cc1c(-c2c[nH]c3ccccc23)cc(-c2ccc(OC(F)(F)F)cc2)nc1N [Compound 40] | – | H37RV MIC [1, 2]: ~ 8 µM; MIC [1, 2]: 8 µM (≈ 3.15 µg/mL); Potency relative to pyrazinamide ([1]; ratio of MIC, H37RV): 3 fold; IC50 (MTT cytotoxicity assay): > 70 µg/mL
18 | N#CC1=C(N)OC(c2ccc(C(F)(F)F)cc2)=CC1c1c[nH]c2ccccc12 (centres unmarked) [Compound 43] | 30 µM (≈ 11.4 µg/mL) | –
19 | NC(=O)c1cnccn1 [Pyrazinamide, reference compound] | ~25 µM (≈ 3.08 µg/mL) | MIC [1, 2]: 25 µM (≈ 3.08 µg/mL)
20 | O=C(/C=C/c1ccccc1Cl)c1ccc(C(F)(F)F)cc1 [Compound 1] | 40 µM (≈ 12.4 µg/mL) | –
21 | N#CC1=C(N)OC(c2ccc(OC(F)(F)F)cc2)=CC1c1cccc(Cl)c1 (centres unmarked) [Compound 52] | 127 µM (≈ 49.9 µg/mL) | –

Row | SMILES | MIC [1, 3] | further results
22 | O=C(/C=C/c1cccc(Cl)c1)c1ccc(OC(F)(F)F)cc1 [Compound 12] | 153 µM (≈ 50 µg/mL) | –
23 | N#Cc1c(-c2cccs2)cc(-c2ccc(OC(F)(F)F)cc2)nc1N [Compound 36] | – | MIC [1, 2]: 31 µM (≈ 11.2 µg/mL)
24 | N#CC1=C(N)OC(c2ccc(C(F)(F)F)cc2)=CC1c1cccs1 (centres unmarked) [Compound 46] | 32 µM (≈ 11.1 µg/mL) | –
25 | N#CC1=C(N)OC(c2ccc(OC(F)(F)F)cc2)=CC1c1cccs1 (centres unmarked) [Compound 56] | 31 µM (≈ 11.3 µg/mL) | –
26 | O=C(/C=C/c1ccc(Cl)cc1)c1ccc(OC(F)(F)F)cc1 [Compound 18] | 177 µM (≈ 57.8 µg/mL) | –
27 | O=C(O)c1cn(C2CC2)c2cc(N3CCNCC3)c(F)cc2c1=O [Ciprofloxacin, reference compound] | ~9 µM (≈ 2.98 µg/mL) | MIC [1, 2]: 9 µM (≈ 2.98 µg/mL)
28 | O=C(/C=C/c1c[nH]c2ccccc12)c1ccc(OC(F)(F)F)cc1 [Compound 13] | 138 µM (≈ 45.7 µg/mL) | –
29 | N#CC1=C(N)OC(c2ccc(OC(F)(F)F)cc2)=CC1c1cccc([N+](=O)[O-])c1 (centres unmarked) [Compound 55] | 124 µM (≈ 50 µg/mL) | –
30 | O=C(/C=C/c1cccc(Cl)c1Cl)c1ccc(OC(F)(F)F)cc1 [Compound 11] | 153 µM (≈ 55.3 µg/mL) | –
31 | N#Cc1c(-c2cccs2)cc(-c2ccc(OC(F)(F)F)cc2)nc1N [Compound 37] | 17 µM (≈ 6.14 µg/mL) | –
32 | N#Cc1c(-c2ccc([N+](=O)[O-])cc2)cc(-c2ccc(OC(F)(F)F)cc2)nc1N [Compound 39] | 145 µM (≈ 58 µg/mL) | –
33 | O=C(/C=C/c1ccc(Cl)cc1)c1ccc(C(F)(F)F)cc1 [Compound 8] | 188 µM (≈ 58.4 µg/mL) | –
34 | N#CC1=C(N)OC(c2ccc(C(F)(F)F)cc2)=CC1c1ccc(Cl)cc1 (centres unmarked) [Compound 48] | 38 µM (≈ 14.3 µg/mL) | –
35 | N#Cc1c(-c2cccc(Cl)c2Cl)cc(-c2ccc(OC(F)(F)F)cc2)nc1N [Compound 31] | 32 µM (≈ 13.6 µg/mL) | –
36 | N#CC1=C(N)OC(c2ccc(C(F)(F)F)cc2)=CC1c1ccccc1[N+](=O)[O-] (centres unmarked) [Compound 44] | 32 µM (≈ 12.4 µg/mL) | –
37 | O=C(/C=C/c1ccc([N+](=O)[O-])cc1)c1ccc(C(F)(F)F)cc1 [Compound 9] | 189 µM (≈ 60.7 µg/mL) | –
38 | N#Cc1c(-c2ccc(Cl)cc2)cc(-c2ccc(C(F)(F)F)cc2)nc1N [Compound 28] | 38 µM (≈ 14.2 µg/mL) | –
39 | N#Cc1c(-c2cccc(Cl)c2Cl)cc(-c2ccc(C(F)(F)F)cc2)nc1N [Compound 21] | 33 µM (≈ 13.5 µg/mL) | –
40 | O=C(/C=C/c1ccc[nH]1)c1ccc(C(F)(F)F)cc1 [Compound 10] | 40 µM (≈ 10.6 µg/mL) | –
41 | N#Cc1c(-c2cccc([N+](=O)[O-])c2)cc(-c2ccc(OC(F)(F)F)cc2)nc1N [Compound 35] | 125 µM (≈ 50 µg/mL) | –
42 | O=C(/C=C/c1cccc([N+](=O)[O-])c1)c1ccc(C(F)(F)F)cc1 [Compound 5] | 155 µM (≈ 49.8 µg/mL) | –

Row | SMILES | MIC [1, 3] | further results
43 | N#CC1=C(N)OC(c2ccc(OC(F)(F)F)cc2)=CC1c1ccco1 (centres unmarked) [Compound 57] | 34 µM (≈ 11.8 µg/mL) | –
44 | N#CC1=C(N)OC(c2ccc(OC(F)(F)F)cc2)=CC1c1cccc(Cl)c1Cl (centres unmarked) [Compound 51] | 16 to 18 µM (≈ 6.84 to 7.69 µg/mL) | MIC [1, 2]: 16 µM (≈ 6.84 µg/mL)
45 | N#Cc1c(-c2cccc(Cl)c2)cc(-c2ccc(OC(F)(F)F)cc2)nc1N [Compound 32] | 128 µM (≈ 49.9 µg/mL) | –
46 | N#Cc1c(-c2ccc(Cl)cc2)cc(-c2ccc(OC(F)(F)F)cc2)nc1N [Compound 38] | 36 µM (≈ 14 µg/mL) | –
47 | O=C(/C=C/c1ccc([N+](=O)[O-])cc1)c1ccc(OC(F)(F)F)cc1 [Compound 19] | 178 µM (≈ 60 µg/mL) | –
48 | N#CC1=C(N)OC(c2ccc(OC(F)(F)F)cc2)=CC1c1ccccc1[N+](=O)[O-] (centres unmarked) [Compound 54] | 31 µM (≈ 12.5 µg/mL) | –
49 | N#CC1=C(N)OC(c2ccc(C(F)(F)F)cc2)=CC1c1ccco1 (centres unmarked) [Compound 47] | 36 µM (≈ 12 µg/mL) | –
50 | O=C(/C=C/c1ccco1)c1ccc(C(F)(F)F)cc1 [Compound 7] | – | MIC ([1]; Mycobacterium tuberculosis, H37RV, 120 h): 177 µM (≈ 47.1 µg/mL)
51 | N#Cc1c(-c2ccc[nH]2)cc(-c2ccc(C(F)(F)F)cc2)nc1N [Compound 30] | 16 to 18 µM (≈ 5.25 to 5.91 µg/mL) | MIC [1, 2]: 17 µM (≈ 5.58 µg/mL)
52 | N#Cc1c(-c2c[nH]c3ccccc23)cc(-c2ccc(C(F)(F)F)cc2)nc1N [Compound 23] | 31 µM (≈ 11.7 µg/mL) | –
53 | N#CC1=C(N)OC(c2ccc(C(F)(F)F)cc2)=CC1c1cccc([N+](=O)[O-])c1 (centres unmarked) [Compound 45] | 129 µM (≈ 50 µg/mL) | –
54 | N#Cc1c(-c2cccc([N+](=O)[O-])c2)cc(-c2ccc(C(F)(F)F)cc2)nc1N [Compound 25] | 130 µM (≈ 50 µg/mL) | –
55 | N#Cc1c(-c2ccccc2[N+](=O)[O-])cc(-c2ccc(C(F)(F)F)cc2)nc1N [Compound 24] | 33 µM (≈ 12.7 µg/mL) | –
56 | N#Cc1c(-c2c[nH]c3ccccc23)cc(-c2ccc(OC(F)(F)F)cc2)nc1N [Compound 33] | – | MIC [1, 2]: 30 µM (≈ 11.8 µg/mL)
57 | N#CC1=C(N)OC(c2ccc(C(F)(F)F)cc2)=CC1c1cccc(Cl)c1 (centres unmarked) [Compound 42] | 133 µM (≈ 50.1 µg/mL) | –
58 | O=C(/C=C/c1cccs1)c1ccc(C(F)(F)F)cc1 [Compound 6] | 156 µM (≈ 44 µg/mL) | –
59 | N#Cc1c(-c2ccccc2[N+](=O)[O-])cc(-c2ccc(OC(F)(F)F)cc2)nc1N [Compound 34] | 31 µM (≈ 12.4 µg/mL) | –
60 | N#Cc1c(-c2cccs2)cc(-c2ccc(C(F)(F)F)cc2)nc1N [Compound 27] | – | MIC [1, 2]: 18 µM (≈ 6.22 µg/mL)
61 | N#Cc1c(-c2cccs2)cc(-c2ccc(C(F)(F)F)cc2)nc1N [Compound 26] | – | MIC [1, 2]: 33 µM (≈ 11.4 µg/mL)
62 | O=C(/C=C/c1ccccc1[N+](=O)[O-])c1ccc(OC(F)(F)F)cc1 [Compound 14] | 148 µM (≈ 49.9 µg/mL) | –
63 | O=C(/C=C/c1ccc[nH]1)c1ccc(OC(F)(F)F)cc1 [Compound 20] | 38 µM (≈ 10.7 µg/mL) | –

Source: article PMC9202851, “Antitubercular activity assessment of fluorinated chalcones, 2-aminopyridine-3-carbonitrile and 2-amino-4H-pyran-3-carbonitrile derivatives: In vitro, molecular docking and in-silico drug likeliness studies” (PLoS ONE, 2022)
